Data from US20200109126A1 (priority 2017, published 2020).
Where two headings read alike, the source gives them in different places.

What was measured:
[1] = target: T1, μOR (Homo sapiens, UniProt P35372); assay: cell-based; assay type: cell-based
[2] = target: T1, μOR; assay: β-arrestin recruitment at μOR without GRK2; assay type: cell-based
[3] = target: T1, μOR; assay: β-arrestin recruitment at μOR with GRK2 co-expression; assay type: cell-based
[4] = target: humanDOR (Homo sapiens, UniProt P41143); assay: Receptor binding with [3H]diprenorphine at human DOR
[5] = target: hKOR (Homo sapiens, UniProt P41145); assay: Receptor binding with [3H]diprenorphine at hKOR
[6] = target: hMOR (Homo sapiens, UniProt P35372); assay: Receptor binding with [3H]diprenorphine at hMOR
[7] = target: T1, μOR; assay: biochemical; assay type: binding; parameters: expressed in transfected cells; host or cells: HEK293 membranes (Ki); Sf9 insect cell membranes (single-point screen); PDSP for analogs
Experimental: For a primary screen of selected molecules, binding to OR was assessed by measuring competition against the radioligand ^3H-diprenorphine (^3H-DPN). […] The reaction contained 40 fmol of μOR and was incubated in a buffer of 20 mM HEPES pH 7.5, 100 mM sodium chloride, and 0.1% bovine serum albumin for 1 hour at 25° C. To separate free from bound radioligand, reactions were rapidly filtered over Whatman GF/B filters with the aid of a Brandel harvester and ^3H-DPN counts were measured by liquid scintillation.

[8] = read-out: Arrestin pEC50 (converted)
[9] = ± SD (two experiments) or SEM, (n) experiments, read-out: humanDOR [3H]dyprenorphine Ki
[10] = ± SD (two experiments) or SEM, (n) experiments, read-out: hKOR [3H]dyprenorphine Ki
[11] = ± SD (two experiments) or SEM, (n) experiments, read-out: hMOR [3H]dyprenorphine Ki
[12] = molecules identified in the initial screen, read-out: μOR Ki
[13] = PZM analogs, (n) = number of independent experiments, read-out: binding affinity Ki hDOR
[14] = PZM analogs, (n) = number of independent experiments, read-out: binding affinity Ki hKOR
[15] = PZM analogs, (n) = number of independent experiments, read-out: binding affinity Ki hMOR

Sequence of humanDOR (P41143 whole entry): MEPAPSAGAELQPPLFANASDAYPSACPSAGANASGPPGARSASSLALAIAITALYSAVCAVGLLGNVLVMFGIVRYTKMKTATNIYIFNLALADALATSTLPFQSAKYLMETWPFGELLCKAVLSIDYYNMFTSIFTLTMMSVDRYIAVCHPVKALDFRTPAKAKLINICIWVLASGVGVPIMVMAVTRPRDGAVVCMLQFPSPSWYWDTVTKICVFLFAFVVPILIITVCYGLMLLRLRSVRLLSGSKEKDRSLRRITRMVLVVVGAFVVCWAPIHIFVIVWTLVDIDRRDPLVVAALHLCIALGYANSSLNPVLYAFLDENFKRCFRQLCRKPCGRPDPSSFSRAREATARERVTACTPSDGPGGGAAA
T1 sequence (P35372 whole entry): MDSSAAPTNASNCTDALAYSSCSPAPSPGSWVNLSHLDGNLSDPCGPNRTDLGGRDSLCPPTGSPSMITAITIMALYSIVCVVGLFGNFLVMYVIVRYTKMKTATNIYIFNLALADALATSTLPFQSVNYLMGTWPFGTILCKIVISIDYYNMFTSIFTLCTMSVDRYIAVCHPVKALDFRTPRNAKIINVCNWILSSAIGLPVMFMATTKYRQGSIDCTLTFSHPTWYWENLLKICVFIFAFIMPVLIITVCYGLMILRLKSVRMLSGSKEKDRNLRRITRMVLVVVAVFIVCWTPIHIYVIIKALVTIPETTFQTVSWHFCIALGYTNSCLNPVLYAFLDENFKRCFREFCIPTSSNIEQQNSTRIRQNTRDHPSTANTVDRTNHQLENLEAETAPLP
Sequence of hMOR (P35372 whole entry): as above
Sequence of hKOR (P41145 whole entry): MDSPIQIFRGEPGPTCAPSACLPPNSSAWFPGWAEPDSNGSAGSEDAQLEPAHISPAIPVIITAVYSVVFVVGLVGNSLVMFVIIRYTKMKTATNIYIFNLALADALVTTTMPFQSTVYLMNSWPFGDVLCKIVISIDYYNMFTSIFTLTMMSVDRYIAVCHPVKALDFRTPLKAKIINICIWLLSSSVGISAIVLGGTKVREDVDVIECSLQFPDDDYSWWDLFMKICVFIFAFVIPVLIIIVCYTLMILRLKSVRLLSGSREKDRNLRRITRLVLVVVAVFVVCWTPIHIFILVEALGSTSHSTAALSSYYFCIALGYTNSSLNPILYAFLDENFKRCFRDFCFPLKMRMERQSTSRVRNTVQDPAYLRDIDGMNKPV

Structure (SMILES)	Arrestin Emax % DAMGO [2]	Arrestin + GRK2 Emax % DAMGO [3]	EC50 ([2]; read-out: Arrestin EC50) [nM]	Gi/o Emax % DAMGO [1]	EC50 ([1]; Gi/o EC50 nM) [nM]	EC50 ([3]; read-out: Arrestin + GRK2 EC50) [nM]	also measured
C[C@H](Cc1ccsc1)NC(=O)NC[C@H](Cc1ccc(O)cc1)N(C)C [(S,R)-21, 1-[(S)-2-(Dimethylamino)-3-(4-hydroxyphenyl)propyl]-3-((R)-1-(thiophen-3-yl)propan-2-yl)urea]	–	–	–	–	–	–	Gi/o activation, μOR agonist activity (in words) [1]: more potent partial agonist of the μOR as compared to (S,S)-21
C[C@@H](Cc1ccsc1)NC(=O)NC[C@H](Cc1ccccc1)N(C)C [(S,S)-12, 1-[(S)-2-(Dimethylamino)-3-phenylpropyl]-3-[(S)-1-(thiophen-3-yl)propan-2-yl]urea]	–	–	–	–	–	–	Gi/o activation, μOR agonist activity (in words) [1]: most potent and efficacious Gi/o signaling agonist among the four isomers
C[C@@H](NC(=O)[C@@H](N)Cc1ccc(O)cc1)C(=O)NCC(=O)N(C)[C@@H](Cc1ccccc1)C(=O)NCCO [DAMGO, reference compound]	100 % DAMGO	100 % DAMGO	–	–	–	–	–
C[C@@H](Cc1csc2ccccc12)NC(=O)NC[C@H](Cc1ccc(O)cc1)N(C)C [DD63L-B]	38 % DAMGO	92 % DAMGO	397	88 % DAMGO	5.7	82.1	–
CN(C)[C@H](CNC(=S)NCCc1ccsc1)Cc1ccc(O)cc1 [DD81, (S)-1-(2-(dimethylamino)-3-(4-hydroxyphenyl)propyl)-3-(2-(thiophen-3-yl)ethyl)thiourea]	3 % DAMGO	27 % DAMGO	24.9	22 % DAMGO	15.1	67.1	–
CC[C@@H](Cc1ccsc1)NC(=O)NC[C@H](Cc1ccc(O)cc1)N(C)C [DD88B, 1-((S)-2-(dimethylamino)-3-(4-hydroxyphenyl)propyl)-3-((S)-1-(thiophen-3-yl)butan-2-yl)urea]	5 % DAMGO	45 % DAMGO	–	–	–	–	–
CN(C)[C@H](CNC(=O)NCCc1ccccc1)Cc1ccc(O)cc1 [DD90]	5 % DAMGO	31 % DAMGO	53.5	76 % DAMGO	4.25	144	–
CN(CCc1ccccc1)C(=O)NC[C@H](Cc1ccc(O)cc1)N(C)C [DD102]	30 % DAMGO	61 % DAMGO	1980	76 % DAMGO	37.9	1500	EC50 [2, 8]: 1980 nM
CN(C[C@H](Cc1ccc(O)cc1)N(C)C)C(=O)NCCc1ccccc1 [DD108]	120 % DAMGO	118 % DAMGO	4710	86 % DAMGO	35.1	1490	EC50 ([3]; read-out: Arrestin + GRK2 pEC50 (converted)): 1490 nM
CN(CCc1ccccc1)C(=O)N(C)C[C@H](Cc1ccc(O)cc1)N(C)C [DD109]	No Activity	No Activity	–	No Activity	–	–	Arrestin EC50 nM [2]: No Activity; Gi/o EC50 nM [1]: No Activity; Arrestin + GRK2 EC50 nM [3]: No Activity
C[C@@H](Cc1ccsc1)NC(=O)NC[C@H](Cc1ccc(O)c(CO)c1)N(C)C [DD131, 1-((S)-2-(dimethylamino)-3-(4-hydroxy-3-(hydroxymethyl)phenyl)propyl)-3-((S)-1-(thiophen-3-yl)propan-2-yl)urea]	11 % DAMGO	45 % DAMGO	230	57 % DAMGO	7.94	213	–
CN(CC1CC1)[C@H](CNC(=O)NCCc1ccccc1)Cc1ccc(O)cc1 [DD184]	No Activity	No Activity	–	40 % DAMGO	559	–	Arrestin EC50 nM [2]: No Activity; Arrestin + GRK2 EC50 nM [3]: No Activity
CN(C)[C@H](CNC(=O)NCCc1ccsc1)Cc1ccc(O)cc1 [DD 16, (S)-1-(2-(dimethylamino)-3-(4-hydroxyphenyl)propyl)-3-(2-(thiophen-3-yl)ethyl)urea]	5 % DAMGO	33 % DAMGO	–	60 % DAMGO	7.55	144	Ki [4, 9]: 330 nM; Ki [5, 10]: 150 nM; Ki [6, 11]: 43 nM; EC50 [2, 8]: 410 nM
CN(C)[C@H](CNC(=O)NC(C)(C)Cc1ccsc1)Cc1ccc(O)cc1 [DD 32L, (S)-1-(2-(dimethylamino)-3-(4-hydroxyphenyl)propyl)-3-(2-methyl-1-(thiophen-3-yl)propan-2-yl)urea]	3 % DAMGO	24 % DAMGO	5.23	52 % DAMGO	23.5	49.4	Ki [4, 9]: 650 nM; Ki [5, 10]: 46 nM; Ki [6, 11]: 38 nM
CN(C)[C@H](CNC(=O)NC(C)(C)Cc1ccccc1)Cc1ccc(O)cc1 [DD 33L, (S)-1-(2-(dimethylamino)-3-(4-hydroxyphenyl)propyl)-3-(2-methyl-1-phenylpropan-2-yl)urea]	No Activity	14 % DAMGO	–	61 % DAMGO	98.1	134	Ki [4, 9]: 920 nM; Ki [5, 10]: 91 nM; Ki [6, 11]: 46 nM; Arrestin EC50 nM [2]: No Activity; EC50 ([1]; Gi/o pEC50): 98.2 nM
C[C@@H](Cc1ccsc1)NC(=O)NC[C@H](Cc1cccc(O)c1)N(C)C [DD 47LS, 1-((S)-2-(dimethylamino)-3-(3-hydroxyphenyl)propyl)-3-((S)-1-(thiophen-3-yl)propan-2-yl)urea]	12 % DAMGO	70 % DAMGO	357	73 % DAMGO	17	211	Ki [4, 9]: 350 nM; Ki [5, 10]: 46 nM; Ki [6, 11]: 34 nM
C[C@H](NC(=O)NC[C@H](Cc1ccc(O)cc1)N(C)C)c1ccccc1 [DD 53LS, 1-((S)-2-(dimethylamino)-3-(4-hydroxyphenyl)propyl)-3-((S)-1-phenylethyl)urea]	5 % DAMGO	33 % DAMGO	67.9	63 % DAMGO	3.08	87.4	Ki [4, 9]: 180 nM; Ki [5, 10]: 22 nM; Ki [6, 11]: 28 nM
CN(C)[C@H](CNC(=O)NC1Cc2ccccc2C1)Cc1ccc(O)cc1 [DD 57L, (S)-1-(2,3-dihydro-1H-inden-2-yl)-3-(2-(dimethylamino)-3-(4-hydroxyphenyl)propyl)urea]	No Activity	No Activity	–	No Activity	–	–	Ki [4, 9]: 74 nM; Ki [5, 10]: 40 nM; Ki [6, 11]: 8.3 nM; Arrestin EC50 nM [2]: No Activity; Gi/o EC50 nM [1]: No Activity; Arrestin + GRK2 EC50 nM [3]: No Activity
C[C@@H](Cc1ccccc1)NC(=O)NC[C@H](Cc1ccc(O)cc1)N(C)C [DD 61L-B, 1-((S)-2-(dimethylamino)-3-(4-hydroxyphenyl)propyl)-3-((S)-1-phenylpropan-2-yl)urea]	12 % DAMGO	79 % DAMGO	84.1	84 % DAMGO	35.5	278	Ki [4, 9]: 360 nM; Ki [5, 10]: 37 nM; Ki [6, 11]: 42 nM
CN(C)[C@H](CNC(=O)Cc1cn2ccccc2n1)Cc1ccccc1 [compound 2]	–	–	–	–	–	–	Ki [7, 12]: 5800 nM
Cc1cccc(NC2CCN(C(=O)Nc3ccc(F)cc3F)CC2)n1 [compound 3]	–	–	–	–	–	–	Ki [7, 12]: 13800 nM
CN(C)[C@H](CNC(=O)Cc1ccc([N+](=O)[O-])s1)Cc1ccccc1 [compound 4]	–	–	–	–	–	–	Ki [7]: 2300 nM
Cc1ccc2[nH]c(=O)c(CN3CCN[C@@H](c4ccccc4)C3)cc2c1 [compound 5]	–	–	–	–	–	–	Ki [7, 12]: 4700 nM
CN(C)[C@H](CNC(=O)NC(C)(C)Cc1ccsc1)Cc1ccc(O)cc1 [drawing 528]	–	–	–	–	–	–	Ki [4, 13]: 650 nM; Ki [5, 14]: 46 nM; Ki [6, 15]: 38 nM
CN(C)[C@H](CNC(=O)NC(C)(C)Cc1ccccc1)Cc1ccc(O)cc1 [drawing 530]	–	–	–	–	–	–	Ki [4, 13]: 920 nM; Ki [5, 14]: 91 nM; Ki [6, 15]: 46 nM
C[C@@H](Cc1ccsc1)NC(=O)NC[C@H](Cc1cccc(O)c1)N(C)C [drawing 531]	–	–	–	–	–	–	Ki [4, 13]: 350 nM; Ki [5, 14]: 46 nM; Ki [6, 15]: 34 nM
CN(C)[C@H](CNC(=O)NC(C)(C)Cc1ccsc1)Cc1cccc(O)c1 [drawing 532]	–	–	–	–	–	–	Ki [4, 13]: 190 nM; Ki [5, 14]: 32 nM; Ki [6, 15]: 25 nM
C[C@@H](Cc1ccsc1)NC(=O)NC[C@H](Cc1ccc(O)c(CO)c1)N(C)C [drawing 535]	–	–	–	–	–	–	Ki [4, 13]: 1500 nM; Ki [5, 14]: 86 nM; Ki [6, 15]: 66 nM
Cc1cc(O)cc(C)c1C[C@@H](CNC(=O)N[C@H](C)Cc1ccsc1)N(C)C [drawing 537]	–	–	–	–	–	–	Ki [4, 13]: 17 nM; Ki [5, 14]: 12 nM; Ki [6, 15]: 4.1 nM
Cc1cc(O)cc(C)c1C[C@@H](CNC(=O)N[C@@H](C)Cc1ccsc1)N(C)C [drawing 538]	–	–	–	–	–	–	Ki [4, 13]: 85 nM; Ki [5, 14]: 6.5 nM; Ki [6, 15]: 12 nM
